Experimental data: BigSolDB 2.1

Cc1cccc(C(=O)O)c1N
solubility (mole fraction)
Conditions | 278.15 K | 283.15 K | 288.15 K | 293.15 K | 298.15 K | 303.15 K | 308.15 K | 313.15 K | 318.15 K
in 1,4-dioxane | – | – | 0.108 | 0.117 | 0.127 | 0.137 | 0.148 | 0.159 | 0.171
in 2-butanone | 0.0646 | 0.0721 | 0.0792 | 0.0872 | 0.0953 | 0.104 | 0.114 | 0.124 | 0.134
in acetone | 0.0745 | 0.0829 | 0.0918 | 0.101 | 0.111 | 0.121 | 0.132 | 0.143 | 0.154
in acetonitrile | 0.0227 | 0.0275 | 0.0329 | 0.039 | 0.0461 | 0.054 | 0.0628 | 0.0727 | 0.0834
in cyclohexane | – | 8.89e-05 | 0.000115 | 0.000153 | 0.000204 | 0.00027 | 0.00035 | 0.000454 | 0.000578
in ethanol | 0.0176 | 0.0208 | 0.0244 | 0.0286 | 0.0333 | 0.0385 | 0.0444 | 0.0509 | 0.0582
in ethyl acetate | 0.0294 | 0.0345 | 0.0405 | 0.0469 | 0.054 | 0.0619 | 0.0704 | 0.0803 | 0.0907
in isopropanol | 0.00876 | 0.0109 | 0.0138 | 0.017 | 0.0208 | 0.0253 | 0.0303 | 0.036 | 0.0427
in methanol | 0.02 | 0.0235 | 0.0273 | 0.0317 | 0.0367 | 0.0423 | 0.0483 | 0.055 | 0.0624
in n-butanol | 0.0117 | 0.0144 | 0.0176 | 0.0212 | 0.0254 | 0.0302 | 0.0357 | 0.0422 | 0.0498
in n-propanol | 0.0151 | 0.0178 | 0.0212 | 0.0251 | 0.0293 | 0.0344 | 0.04 | 0.046 | 0.0532
in toluene | 0.0011 | 0.00145 | 0.00184 | 0.00235 | 0.00298 | 0.00382 | 0.0049 | 0.00619 | 0.00797
